Here are results for 1 compound from patent publication US10730892B2, “Homoallylamines as formaldehyde-responsive triggers” (The Regents of the University of California, priority 2015, dated 2020).

“And” between values parts separate entries of the source, which are not always exact repeats. Equal entries are not always repeated. Where two headings read alike, the source gives them in different places.

For data set [1] the following is noted: for fold increase in fluorescence intensity: 3 h. As for the experimental part: All experiments were performed at 37° C. for 3 h. Time points on graphs a-b are recorded every 15 min. The time points for graphs c-d represent every 30 min.
All buffers used for pH titrations were prepared in deionized water and brought to the appropriate pH with aqueous HCl or NaOH. The buffers used were 50 mM glycine (pH range 2.00-3.50), 50 mM NaOAc (pH range 4.00-5.60), 50 mM MES (pH range 5.60-6.80), 50 mM HEPES (pH range 6.80-8.20), 50 mM Tris (pH range 8.20-9.50) and 50 mM glycine (pH range 9.50-10.40). A 10 mM stock solution of formaldehyde for in vitro titration experiments was prepared by heating a suspension of paraformaldehyde (>88% w/w, 17.6 mg, 0.50 mmol, TCI, lot # NXR2B) in phosphate buffered saline (PBS) buffered to pH 7.4 (50 mL) at 88° C. for 1 hr. The solution was cooled to room temperature and filtered through a 0.22 μm syringe filter (Millex).
Nuclear magnetic resonance (NMR) spectra were recorded on Varian 400 or 500 MHz spectrometers at 25° C. Chemical shifts are reported in ppm (δ) and are referenced to residual protic peaks. The following abbreviations are used to describe coupling constants: singlet (s), doublet (d), triplet (t), quartet (q), doublet doublet (dd), doublet triplet (dt), doublet quartet (dq), doublet doublet triplet (ddt), multiplet (m), and broad singlet (bs). IR spectra were recorded with a PerkinElmer Spectrum Two infrared (IR) spectrometer. High-resolution mass spectra were acquired with a Waters Q-TOF Ultima ESI mass spectrometer and a Waters Synapt G2-Si ESI/LC-MS mass spectrometer. UV-visible spectra were recorded on a Cary 60 spectrometer. Fluorescence spectra were acquired on a QuantaMaster-400 scanning spectrofluorometer with micro fluorescence quartz cuvettes (Science Outlet). Flow cytometry was performed on a BD Biosciences LSR II (San Jose, Calif., USA), and the data were analyzed as described using FACSDiva software.
(§1) In addition to its ability to crosslink biomolecules, FA is cytotoxic through the induction of oxidative stress (Zararsiz et al., Cell Biochem. Fund. 2007, 25:413).

How the values of data set [2] were obtained:
Time points on graph are 0, 30, 60, 90, 120, 150, and 180 min. […] Bars represent normalized fold-changes in response to treatment with each analyte listed at 1 mM for 3 hrs.
as §1

For data set [3], the system named is HEK293TN and NS1 cells. To be noted: 2 μM FP1, 1 μM tracker, both cell lines. The source says: Scale bar represents 20 μm.
(§2) For example, semicarbazide-sensitive amine oxidase (SSAO) is primarily localized to the plasma membrane (Andres et al., J. Histochem. Cytochem. 2001, 49:209). Thus, both HEK293TN and NS1 cells were costained with ER-Tracker Green, LysoTracker Green DND-26, and MitoTracker Green FM, fluorescent indicators that are known to selectively stain the endoplasmic reticulum, lysosome, and mitochondria, respectively in almost all cell types (FIG. 17A and FIG. 17B).

Data set [4] relates to HEK293TN and NS1 cells. The conditions noted are these: 1 μM FP1 for 8 min, imaged after 30 min and after 8 hrs.
Text: as §2

The next data set deals with HEK293TN cells. The conditions noted are these: 100 scans at 25% laser power, pinhole 1 airy unit.
Text: as §2

As for `C=CCC(NCc1ccc([N+](=O)[O-])cc1)c1cn(C)c2cc(C)c(C3=C4C=CC(=O)C=C4[Si](C)(C)c4c3cc3c5c4CCCN5CCC3)cc12` (stereo not drawn) [FP1], the “fold increase in fluorescence intensity” value in data set [1] (1 μM FP1, 0.1 mM FA, PBS pH 7.4, 37° C.) is 3.9 fold; in data set [1] (1 μM FP1, 0.5 mM FA, PBS pH 7.4, 37° C.), 8.5 fold; in data set [1] (1 μM FP1, 1 mM FA, PBS pH 7.4, 37° C.) it was 12.8 fold and 11.6 fold. Besides, the fold fluorescence increase result in data set [1] (1 μM FP1, 0.25 mM FA, PBS pH 7.4, 37° C., 3 hrs) is given as “ca. 7.0 fold”; in data set [2] (1 μM FP1, 1 mM acetaldehyde, 3 hrs) it was 1.9 fold. In addition, the “lower limit of detection of FP1” value in data set [1] (FA, after 3 hrs incubation at 37° C.) is given as 0.01 mM. Besides, the “cross-reactivity with aldehyde containing species” value in data set [2] (1 μM FP1, 1 mM of the various analytes) is given as “only minimal cross-reactivity”. In addition, the change in fluorescence result in data set [2] (1 mM hydrogen peroxide) was “no significant change in fluorescence”. In addition, the “chemical stability in the presence of intracellular reductants” value in data set [2] (cysteine, glutathione, hydrogen sulfide, 1 mM, 3 hrs) was “no aberrant reactivity”. For the same compound, the “staining pattern (overlay with ER-Tracker Green)” value in the data set with HEK293TN and NS1 cells [3] is “stained the cytoplasm, as well as the endoplasmic reticulum”. In the data set with HEK293TN and NS1 cells [4], the “dye efflux: change in fluorescence” value is on record as “no statistically significant decrease in fluorescence”. Also, in the data set on HEK293TN cells, the “photostability toward repeated irradiation” value is given as “no decrease in fluorescence”.
